Source: patent publication US8802597B2, “Herbicidal pyrimidines” (E I du Pont de Nemours and Company, priority 2003, dated 2014)

Tests used:
Format in all cases: in vivo
[1] = tested on: Surinam grass (Brachiaria decumbens); test: Test B pre/postemergence
Procedure, shortened: (§1)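 Visual rating, 0 (no effect) to 100 (complete control) versus controls, taken 13–15 days after treatment in greenhouse. Compounds formulated in non-phytotoxic solvent plus surfactant; pre: sprayed after seeding; post: plants at 1- to 4-leaf stage, 2–18 cm.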

[2] = tested on: barnyardgrass (Echinochloa crus-galli); test: Test B pre/postemergence
Procedure, shortened: as §1

[3] = tested on: cocklebur (Xanthium strumarium); test: Test B pre/postemergence
Procedure, shortened: as §1

[4] = tested on: corn (Zea mays); test: Test B pre/postemergence
Procedure, shortened: as §1

[5] = tested on: crabgrass (Digitaria sanguinalis); test: Test B pre/postemergence
Procedure, shortened: as §1

[6] = tested on: giant foxtail (Setaria faberii); test: Test B pre/postemergence
Procedure, shortened: as §1

[7] = tested on: lambsquarters (Chenopodium album); test: Test B pre/postemergence
Procedure, shortened: as §1

[8] = tested on: morningglory (Ipomoea coccinea); test: Test B pre/postemergence
Procedure, shortened: as §1

[9] = tested on: pigweed (Amaranthus retroflexus); test: Test B pre/postemergence
Procedure, shortened: as §1

[10] = tested on: velvetleaf (Abutilon theophrasti); test: Test B pre/postemergence
Procedure, shortened: as §1

[11] = tested on: wheat (Triticum aestivum); test: Test B pre/postemergence
Procedure, shortened: as §1

[12] = tested on: blackgrass (Alopecurus myosuroides); test: Test B postemergence; conditions: for Blackgrass plant response rating: scale 0 to 100 (0 no effect, 100 complete control); for Plant response rating, Blackgrass: 500 g ai/ha, scale 0 to 100
Procedure, shortened: as §1

[13] = tested on: wild oat (Avena fatua); test: Test B postemergence; conditions: for Oat, Wild plant response rating: scale 0 to 100 (0 no effect, 100 complete control); for Plant response rating, Oat, Wild: 500 g ai/ha, scale 0 to 100
Procedure, shortened: as §1

[14] = tested on: barnyardgrass (Echinochloa crus-galli); test: Test B flooded paddy test; conditions: Flood, 1000 g ai/ha; scale 0 (no effect) to 100 (complete control)
Procedure, shortened: (§2)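 Plants were grown to the 2-leaf stage before treatment, then kept in a greenhouse for 13 to 15 days. Injury was rated visually against untreated controls on a 0 to 100 scale, where 0 is no effect and 100 is complete control.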

[15] = tested on: duck salad (Heteranthera limosa); test: Test B flooded paddy test; conditions: Flood, 1000 g ai/ha; scale 0 to 100
Procedure, shortened: as §2

[16] = tested on: rice (Oryza sativa); test: Test B flooded paddy test; conditions: Flood, 1000 g ai/ha; scale 0 to 100
Procedure, shortened: as §2

[17] = tested on: umbrella sedge (Cyperus difformis); test: Test B flooded paddy test; conditions: Flood, 1000 g ai/ha; scale 0 to 100
Procedure, shortened: as §2

[18] = Postemergence, 125 g ai/ha, scale 0 to 100 (0 no effect, 100 complete control)
[19] = Postemergence, 500 g ai/ha, scale 0 to 100
[20] = Preemergence, 125 g ai/ha, scale 0 to 100 (0 no effect, 100 complete control)
[21] = Preemergence, 500 g ai/ha, scale 0 to 100 (0 no effect, 100 complete control)
[22] = Postemergence, 62 g ai/ha, scale 0 to 100 (0 no effect, 100 complete control)
[23] = Preemergence, 62 g ai/ha, scale 0 to 100, 0 no effect, 100 complete control

CCOC(=O)Cc1nc(C2CC2)nc(N)c1Br [Compound 12]
Surinam Grass plant response rating [1, 18]: 0
Plant response rating, Surinam Grass [1, 19]: 0
Plant response rating, Surinam Grass [1, 20]: 0
Barnyardgrass plant response rating [2, 18]: 0
Plant response rating, Barnyardgrass [2, 19]: 40
Plant response rating, Barnyardgrass [2, 20]: 50
Barnyardgrass plant response rating [2, 21]: 80
Cocklebur plant response rating [3, 18]: 40
Plant response rating, Cocklebur [3, 19]: 70
Plant response rating, Cocklebur [3, 20]: 80
Cocklebur plant response rating [3, 21]: 90
Corn plant response rating [4, 18]: 0
Plant response rating, Corn [4, 19]: 0
Plant response rating, Corn [4, 20]: 0
Corn plant response rating [4, 21]: 30
Crabgrass plant response rating [5, 18]: 10
Plant response rating, Crabgrass [5, 19]: 30
Plant response rating, Crabgrass [5, 20]: 20
Crabgrass plant response rating [5, 21]: 70
Foxtail, Giant plant response rating [6, 18]: 0
Plant response rating, Foxtail, Giant [6, 19]: 30
Plant response rating, Foxtail, Giant [6, 20]: 20
Foxtail, Giant plant response rating [6, 21]: 50
Lambsquarters plant response rating [7, 18]: 60
Plant response rating, Lambsquarters [7, 19]: 80
Plant response rating, Lambsquarters [7, 20]: 90
Lambsquarters plant response rating [7, 21]: 100
Morningglory plant response rating [8, 18]: 60
Plant response rating, Morningglory [8, 19]: 80
Plant response rating, Morningglory [8, 20]: 70
Morningglory plant response rating [8, 21]: 90
Pigweed plant response rating [9, 18]: 50
Plant response rating, Pigweed [9, 19]: 80
Plant response rating, Pigweed [9, 20]: 80
Pigweed plant response rating [9, 21]: 90
Velvetleaf plant response rating [10, 18]: 20
Plant response rating, Velvetleaf [10, 19]: 60
Plant response rating, Velvetleaf [10, 20]: 80
Velvetleaf plant response rating [10, 21]: 90
Wheat plant response rating [11, 18]: 0
Plant response rating, Wheat [11, 19]: 0
Plant response rating, Wheat [11, 20]: 30
Wheat plant response rating [11, 21]: 60
Blackgrass plant response rating ([12]; 125 g ai/ha): 0
Plant response rating, Blackgrass [12]: 0
Oat, Wild plant response rating ([13]; 125 g ai/ha): 0
Plant response rating, Oat, Wild [13]: 0
Plant response rating, Barnyardgrass [14]: 0
Plant response rating, Ducksalad [15]: 20
Plant response rating, Rice [16]: 20
Plant response rating, Sedge, Umbrella [17]: 0

CCCOC(=O)c1nc(C2CC2)nc(N)c1Br [Compound 15]
Surinam Grass plant response rating [1, 18]: 60
Plant response rating, Surinam Grass [1, 19]: 90
Plant response rating, Surinam Grass [1, 20]: 30
Surinam Grass plant response rating [1, 21]: 90
Barnyardgrass plant response rating [2, 18]: 90
Plant response rating, Barnyardgrass [2, 19]: 90
Plant response rating, Barnyardgrass [2, 20]: 40
Barnyardgrass plant response rating [2, 21]: 90
Cocklebur plant response rating [3, 18]: 100
Plant response rating, Cocklebur [3, 19]: 100
Plant response rating, Cocklebur [3, 20]: 70
Cocklebur plant response rating [3, 21]: 100
Corn plant response rating [4, 18]: 50
Plant response rating, Corn [4, 19]: 80
Plant response rating, Corn [4, 20]: 20
Corn plant response rating [4, 21]: 80
Crabgrass plant response rating [5, 18]: 30
Plant response rating, Crabgrass [5, 19]: 60
Plant response rating, Crabgrass [5, 20]: 70
Crabgrass plant response rating [5, 21]: 90
Foxtail, Giant plant response rating [6, 18]: 40
Plant response rating, Foxtail, Giant [6, 19]: 70
Plant response rating, Foxtail, Giant [6, 20]: 40
Foxtail, Giant plant response rating [6, 21]: 80
Lambsquarters plant response rating [7, 18]: 100
Plant response rating, Lambsquarters [7, 19]: 100
Plant response rating, Lambsquarters [7, 20]: 90
Lambsquarters plant response rating [7, 21]: 100
Morningglory plant response rating [8, 18]: 100
Plant response rating, Morningglory [8, 19]: 100
Plant response rating, Morningglory [8, 20]: 70
Morningglory plant response rating [8, 21]: 100
Pigweed plant response rating [9, 18]: 80
Plant response rating, Pigweed [9, 19]: 100
Plant response rating, Pigweed [9, 20]: 90
Pigweed plant response rating [9, 21]: 100
Velvetleaf plant response rating [10, 18]: 80
Plant response rating, Velvetleaf [10, 19]: 90
Plant response rating, Velvetleaf [10, 20]: 70
Velvetleaf plant response rating [10, 21]: 100
Wheat plant response rating [11, 18]: 40
Plant response rating, Wheat [11, 19]: 70
Plant response rating, Wheat [11, 20]: 40
Wheat plant response rating [11, 21]: 60
Blackgrass plant response rating ([12]; 125 g ai/ha): 70
Plant response rating, Blackgrass [12]: 80
Oat, Wild plant response rating ([13]; 125 g ai/ha): 10
Plant response rating, Oat, Wild [13]: 70
Plant response rating, Barnyardgrass [14]: 90
Plant response rating, Ducksalad [15]: 80
Plant response rating, Rice [16]: 70
Plant response rating, Sedge, Umbrella [17]: 70

COC(=O)c1nc(-c2ccc(C(F)(F)F)cc2)nc(N)c1Cl [Compound 44]
Plant response rating, Surinam Grass [1, 19]: 50
Plant response rating, Surinam Grass [1, 20]: 40
Surinam Grass plant response rating [1, 21]: 60
Barnyardgrass plant response rating [2, 18]: 40
Plant response rating, Barnyardgrass [2, 19]: 50
Plant response rating, Barnyardgrass [2, 20]: 0
Barnyardgrass plant response rating [2, 21]: 10
Cocklebur plant response rating [3, 18]: 90
Plant response rating, Cocklebur [3, 19]: 100
Plant response rating, Cocklebur [3, 20]: 10
Cocklebur plant response rating [3, 21]: 80
Corn plant response rating [4, 18]: 30
Plant response rating, Corn [4, 19]: 70
Plant response rating, Corn [4, 20]: 0
Corn plant response rating [4, 21]: 0
Crabgrass plant response rating [5, 18]: 70
Plant response rating, Crabgrass [5, 19]: 80
Plant response rating, Crabgrass [5, 20]: 40
Crabgrass plant response rating [5, 21]: 80
Plant response rating, Foxtail, Giant [6, 20]: 20
Foxtail, Giant plant response rating [6, 21]: 40
Lambsquarters plant response rating [7, 18]: 90
Plant response rating, Lambsquarters [7, 19]: 90
Lambsquarters plant response rating [7, 21]: 60
Morningglory plant response rating [8, 18]: 80
Plant response rating, Morningglory [8, 19]: 100
Plant response rating, Morningglory [8, 20]: 10
Morningglory plant response rating [8, 21]: 40
Pigweed plant response rating [9, 18]: 80
Plant response rating, Pigweed [9, 19]: 90
Plant response rating, Pigweed [9, 20]: 70
Pigweed plant response rating [9, 21]: 80
Velvetleaf plant response rating [10, 18]: 80
Plant response rating, Velvetleaf [10, 19]: 90
Plant response rating, Velvetleaf [10, 20]: 30
Velvetleaf plant response rating [10, 21]: 80
Wheat plant response rating [11, 18]: 0
Plant response rating, Wheat [11, 19]: 30
Plant response rating, Wheat [11, 20]: 30
Plant response rating, Wheat [11, 21]: 60
Blackgrass plant response rating ([12]; 125 g ai/ha): 30
Plant response rating, Blackgrass [12]: 40
Oat, Wild plant response rating ([13]; 125 g ai/ha): 0
Plant response rating, Oat, Wild [13]: 0
Plant response rating, Barnyardgrass [14]: 0
Plant response rating, Ducksalad [15]: 90
Plant response rating, Rice [16]: 0
Plant response rating, Sedge, Umbrella [17]: 80

CCOC(=O)C(Cl)c1nc(C2CC2)nc(N)c1Br (centres unmarked) [Compound 31]
Surinam Grass plant response rating [1, 22]: 0
Plant response rating, Surinam Grass [1, 19]: 0
Plant response rating, Surinam Grass [1, 23]: 20
Surinam Grass plant response rating [1, 21]: 60
Barnyardgrass plant response rating [2, 22]: 0
Plant response rating, Barnyardgrass [2, 19]: 0
Plant response rating, Barnyardgrass [2, 23]: 20
Barnyardgrass plant response rating [2, 21]: 70
Cocklebur plant response rating [3, 22]: 70
Plant response rating, Cocklebur [3, 19]: 80
Plant response rating, Cocklebur [3, 23]: 90
Cocklebur plant response rating [3, 21]: 100
Corn plant response rating [4, 22]: 0
Plant response rating, Corn [4, 19]: 0
Plant response rating, Corn [4, 23]: 0
Corn plant response rating [4, 21]: 40
Crabgrass plant response rating [5, 22]: 0
Plant response rating, Crabgrass [5, 19]: 30
Plant response rating, Crabgrass [5, 23]: 10
Crabgrass plant response rating [5, 21]: 80
Foxtail, Giant plant response rating [6, 22]: 0
Plant response rating, Foxtail, Giant [6, 19]: 0
Plant response rating, Foxtail, Giant [6, 23]: 10
Foxtail, Giant plant response rating [6, 21]: 80
Lambsquarters plant response rating [7, 22]: 40
Plant response rating, Lambsquarters [7, 19]: 70
Plant response rating, Lambsquarters [7, 23]: 90
Lambsquarters plant response rating [7, 21]: 100
Morningglory plant response rating [8, 22]: 50
Plant response rating, Morningglory [8, 19]: 70
Plant response rating, Morningglory [8, 23]: 90
Morningglory plant response rating [8, 21]: 100
Pigweed plant response rating [9, 22]: 20
Plant response rating, Pigweed [9, 19]: 50
Plant response rating, Pigweed [9, 23]: 90
Pigweed plant response rating [9, 21]: 100
Velvetleaf plant response rating [10, 22]: 10
Plant response rating, Velvetleaf [10, 19]: 60
Plant response rating, Velvetleaf [10, 23]: 80
Velvetleaf plant response rating [10, 21]: 90
Wheat plant response rating [11, 22]: 0
Plant response rating, Wheat [11, 19]: 0
Plant response rating, Wheat [11, 23]: 40
Wheat plant response rating [11, 21]: 70
Blackgrass plant response rating ([12]; 62 g ai/ha): 0
Plant response rating, Blackgrass [12]: 0
Oat, Wild plant response rating ([13]; 62 g ai/ha): 0
Plant response rating, Oat, Wild [13]: 0
Plant response rating, Barnyardgrass [14]: 30
Plant response rating, Ducksalad [15]: 60
Plant response rating, Rice [16]: 20
Plant response rating, Sedge, Umbrella [17]: 0
